The results in this text go back to patent US20260015350A1, “AZAQUINAZOLINE PAN-KRAS INHIBITORS” (Mirati Therapeutics, Inc., priority 2022, published 2026).

For test [1], the target named is T1, KRas^G12V (Homo sapiens, UniProt P01116, G12V).
T1 construct: Biotinylated KRas (corresponding to amino acids 1-169, produced at Accelegan Inc.); biotin (biotinylated); purchased Accelegan Inc
Briefly: KRas binding assay (TR-FRET tracer displacement), KRas G12V.

Test [2] concerns KRas-mediated phosphorylation of ERK in AsPC-1 cells. Nature of the test: Inhibition of KRas-mediated phosphorylation of ERK (Cisbio HTRF pERK), AsPC-1 cells. The format is cell-based. To be noted: Homo sapiens; for IC50: ASPC1, AsPC-1 cells, HTRF pERK. Summed up: (§1)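 Following a 3-hr exposure of cells to serially diluted compound (from 10 uM, 3-fold, 10 doses), cold lysis for 40 mins preceded a 2-hr room-temperature HTRF immunoassay for phosphorylated ERK.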

Test [3] has as its system KRas-mediated phosphorylation of ERK in H460 cells. Nature of the test: Inhibition of KRas-mediated phosphorylation of ERK (Cisbio HTRF pERK), H460 cells. The format is cell-based. To be noted: Homo sapiens; for IC50: NCI-H460, HTRF pERK. An outline of the steps:
as §1

For test [4], the system named is KRas-mediated phosphorylation of ERK in PSN1 cells. Nature of the test: Inhibition of KRas-mediated phosphorylation of ERK (Cisbio HTRF pERK), PSN1 cells. Type of test: cell-based. To be noted: Homo sapiens. An outline of the steps:
(§2)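 Phospho-ERK is quantified by HTRF with the Advanced pERK kit. Cells go in at 6,000/well in RPMI plus 10% FBS overnight at 37° C. under 5% CO2, with a 4-hour covered room-temperature incubation ahead of the read.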

The target in test [5] is T2, KRas^G12S (Homo sapiens, UniProt P01116, G12S).
T2 construct: Biotinylated KRas (corresponding to amino acids 1-169, produced at Accelegan Inc.); biotin (biotinylated); purchased Accelegan Inc
Briefly: KRas binding assay (TR-FRET tracer displacement), KRas G12S. To be noted: TR-FRET tracer displacement, KRas G12S.

Test [6] has as its system KRas-mediated phosphorylation of ERK in A549 cells. Nature of the test: Inhibition of KRas-mediated phosphorylation of ERK (Cisbio HTRF pERK), A549 cells. The format is cell-based. To be noted: Homo sapiens; for IC50: HTRF pERK. An outline of the steps: as §1
In test [7] the test system is KRas-mediated phosphorylation of ERK in H727 cells. Nature of the test: Inhibition of KRas-mediated phosphorylation of ERK (Cisbio HTRF pERK), H727 cells. Type of test: cell-based. To be noted: Homo sapiens; for IC50: NCI-H727, H727 cells, HTRF pERK. An outline of the steps: as §1
Test [8] concerns KRas-mediated phosphorylation of ERK in H358 cells. Nature of the test: Inhibition of KRas-mediated phosphorylation of ERK (Cisbio HTRF pERK), H358 cells. To be noted: Homo sapiens; for IC50: NCI-H358, HTRF pERK. The format is cell-based. An outline of the steps:
as §1

Test [9] has as its system KRas-mediated phosphorylation of ERK in HCT116 cells. Briefly: Inhibition of KRas-mediated phosphorylation of ERK (Cisbio HTRF pERK), HCT116 cells. The format is cell-based. To be noted: Homo sapiens; for IC50: HCT-116, HTRF pERK. Summed up: as §1
Test [10] concerns the target T3, KRas^G12R (Homo sapiens, UniProt P01116, G12R).
T3 construct: Biotinylated KRas (corresponding to amino acids 1-169, produced at Accelegan Inc.); biotin (biotinylated); purchased Accelegan Inc
Briefly: KRas binding assay (TR-FRET tracer displacement), KRas G12R.

Test [11] concerns KRas-mediated phosphorylation of ERK in MKN1 cells. Briefly: Inhibition of KRas-mediated phosphorylation of ERK (Cisbio HTRF pERK), MKN1 cells. The format is cell-based. To be noted: Homo sapiens, MKN-1. An outline of the steps:
as §2

The target in test [12] is T4, KRas^G12C (Homo sapiens, UniProt P01116, G12C).
T4 construct: Biotinylated KRas (corresponding to amino acids 1-169, produced at Accelegan Inc.); biotin (biotinylated); purchased Accelegan Inc
Briefly: KRas binding assay (TR-FRET tracer displacement), KRas G12C. To be noted: TR-FRET tracer displacement, KRas G12C.

The target in test [13] is T5, KRas^G12D (Homo sapiens, UniProt P01116, G12D).
T5 construct: Biotinylated KRas (corresponding to amino acids 1-169, produced at Accelegan Inc.); biotin (biotinylated); purchased Accelegan Inc
Briefly: KRas binding assay (TR-FRET tracer displacement), KRas G12D.

T1 sequence (P01116 1-169 isoform P01116-2 G12V): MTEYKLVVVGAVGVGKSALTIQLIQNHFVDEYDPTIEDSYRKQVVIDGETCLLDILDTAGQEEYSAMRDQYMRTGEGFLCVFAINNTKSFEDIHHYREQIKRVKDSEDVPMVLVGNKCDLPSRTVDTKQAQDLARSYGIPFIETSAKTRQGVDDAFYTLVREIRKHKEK
T5 sequence (P01116 1-169 isoform P01116-2 G12D): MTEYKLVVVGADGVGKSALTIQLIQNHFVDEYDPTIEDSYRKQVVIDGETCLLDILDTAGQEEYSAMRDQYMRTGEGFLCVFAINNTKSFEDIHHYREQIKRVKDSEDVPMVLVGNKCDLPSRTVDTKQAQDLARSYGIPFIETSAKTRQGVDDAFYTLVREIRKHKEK
T3 sequence (P01116 1-169 isoform P01116-2 G12R): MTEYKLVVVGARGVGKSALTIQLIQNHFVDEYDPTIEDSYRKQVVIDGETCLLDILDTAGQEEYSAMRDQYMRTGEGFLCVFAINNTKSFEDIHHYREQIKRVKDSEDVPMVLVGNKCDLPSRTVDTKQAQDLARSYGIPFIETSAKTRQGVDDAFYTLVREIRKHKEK
T4 sequence (P01116 1-169 isoform P01116-2 G12C): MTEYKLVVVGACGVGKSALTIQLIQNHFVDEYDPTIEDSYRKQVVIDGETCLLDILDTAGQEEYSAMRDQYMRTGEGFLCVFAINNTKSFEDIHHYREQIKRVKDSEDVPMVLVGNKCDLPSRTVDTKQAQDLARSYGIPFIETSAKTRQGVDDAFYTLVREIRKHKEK
T2 sequence (P01116 1-169 isoform P01116-2 G12S): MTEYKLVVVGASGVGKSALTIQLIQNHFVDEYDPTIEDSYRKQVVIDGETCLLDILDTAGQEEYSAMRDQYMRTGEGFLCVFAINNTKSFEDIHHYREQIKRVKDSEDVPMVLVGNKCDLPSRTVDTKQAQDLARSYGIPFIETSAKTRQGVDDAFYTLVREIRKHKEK

`CCc1c(F)ccc2cc(O)cc(-c3ncc4c(N5CC[C@H]6C(=O)O[C@H]6C5)nc(OC[C@@]56CCCN5C[C@H](F)C6)nc4c3F)c12` [Example 802, 3-(7-(8-ethyl-7-fluoro-3-hydroxynaphthalen-1-yl)-8-fluoro-2-(((2R,7aS)-2-fluorotetrahydro-1H-pyrrolizin-7a(5H)-yl)methoxy)pyrido[4,3-d]pyrimidin-4-yl)-8-oxa-3-azabicyclo[4.2.0]octan-7-one]: the IC50 in test [1] was 116 nM; in test [2], more than 10000 nM; in test [3] it was more than 10000 nM; in [4], more than 10000 nM; in test [5], 2 nM; in test [6], 12 nM. In addition, the IC50 in test [7] was more than 10000 nM; in [8] it was 32 nM; in [9] it was more than 10000 nM; in test [10], 35 nM; in test [11], more than 10000 nM; in test [12], 2 nM. This compound also had an IC50 in test [13] of 189 nM.
Take `CCc1c(F)ccc2cc(O)cc(-c3ncc4c(N5CCC[C@@](C)(O)C5)nc(OC[C@@]56CCCN5[C@H](COC)CC6)nc4c3F)c12` [Example 826, (R)-1-(7-(8-ethyl-7-fluoro-3-hydroxynaphthalen-1-yl)-8-fluoro-2-(((3S,7aS)-3-(methoxymethyl)tetrahydro-1H-pyrrolizin-7a(5H)-yl)methoxy)pyrido[4,3-d]pyrimidin-4-yl)-3-methylpiperidin-3-ol]: the IC50 is less than 2 nM in test [1]; 12 nM in test [2]; 30 nM in test [3]; 2390 nM in [4]; 44 nM in [6]; 51 nM in test [7]. In addition, the IC50 in [8] is 9 nM; in test [9], 74 nM; in test [10], less than 2 nM; in [11] it was 7 nM; in [13] it was less than 2 nM.
With `CCc1c(F)ccc2cc(O)cc(-c3ncc4c(N5CC6CCC(C(=O)N(C)C)(C5)C6(F)F)nc(OC[C@@]56CCCN5C[C@H](F)C6)nc4c3F)c12` (stereo partly drawn) [Example 905, 3-(7-(8-ethyl-7-fluoro-3-hydroxynaphthalen-1-yl)-8-fluoro-2-(((2R,7aS)-2-fluorotetrahydro-1H-pyrrolizin-7a(5H)-yl)methoxy)pyrido[4,3-d]pyrimidin-4-yl)-8,8-difluoro-N,N-dimethyl-3-azabicyclo[3.2.1]octane-1-carboxamide], the IC50 is 394 nM in test [1]; 4150 nM in test [2]; 1350 nM in test [3]; more than 10000 nM in test [4]; 2610 nM in test [6]; 7440 nM in [7]. Also, the half-maximal inhibitory concentration (IC50) in test [8] is 2700 nM; in test [9], 6310 nM; in [10], 94 nM; in [11], 1140 nM; in test [13], 297 nM.
As to `CCc1c(F)ccc2cc(O)cc(-c3ncc4c(N5CCC[C@@](C)(O)C5)nc(OC[C@@]56CCCN5[C@@H](COC)CC6)nc4c3F)c12` [Example 886, (R)-1-(7-(8-ethyl-7-fluoro-3-hydroxynaphthalen-1-yl)-8-fluoro-2-(((3R,7aS)-3-(methoxymethyl)tetrahydro-1H-pyrrolizin-7a(5H)-yl)methoxy)pyrido[4,3-d]pyrimidin-4-yl)-3-methylpiperidin-3-ol], the IC50 in test [1] worked out at 2 nM; in test [2] it was 40 nM; in test [3], 27 nM; in test [4], 2560 nM; in test [6] it was 73 nM; in test [7], 135 nM. For the same compound, the IC50 in [8] amounted to 18 nM; in [9], 59 nM; in test [10], 4 nM; in test [11] it was 22 nM; in [13] it was 2 nM.
As to `CCc1c(F)ccc2cc(O)cc(-c3ncc4c(N5CCC[C@@](C)(O)C5)nc(OCC56CC5CN(C)C6)nc4c3F)c12` (stereo partly drawn) [Example 827, (3R)-1-(7-(8-ethyl-7-fluoro-3-hydroxynaphthalen-1-yl)-8-fluoro-2-((3-methyl-3-azabicyclo[3.1.0]hexan-1-yl)methoxy)pyrido[4,3-d]pyrimidin-4-yl)-3-methylpiperidin-3-ol], the IC50 in [1] is less than 2 nM; in test [2] it was 67 nM; in test [3], 92 nM; in [4], more than 10000 nM; in test [6] it was 159 nM; in [7], 242 nM. Further, the IC50 in test [8] was 68 nM; in test [9] it was 180 nM; in test [10], 3 nM; in test [11], 41 nM; in test [13], less than 2 nM.
Turning to `CCc1c(F)ccc2cc(O)cc(-c3ncc4c(N5CCC[C@@](C)(O)C5)nc(OC[C@@]56CCCN5[C@@H](CF)CC6)nc4c3F)c12` [Example 878, (R)-1-(7-(8-ethyl-7-fluoro-3-hydroxynaphthalen-1-yl)-8-fluoro-2-(((3R,7aS)-3-(fluoromethyl)tetrahydro-1H-pyrrolizin-7a(5H)-yl)methoxy)pyrido[4,3-d]pyrimidin-4-yl)-3-methylpiperidin-3-ol], the IC50 amounted to 3 nM in test [1]; 43 nM in test [2]; 53 nM in test [3]; 4000 nM in test [4]; 125 nM in test [6]; 83 nM in [7]. For the same compound, the IC50 in test [8] came to 52 nM; in test [9], 186 nM; in [10], 6 nM; in [11], 16 nM; in test [13], 3 nM.
As for `CCc1c(F)ccc2cc(O)cc(-c3ncc4c(N5CCC(C#N)CC5)nc(OC[C@@]56CCCN5C[C@H](F)C6)nc4c3F)c12` [Example 544, 1-(7-(8-ethyl-7-fluoro-3-hydroxynaphthalen-1-yl)-8-fluoro-2-(((2R,7aS)-2-fluorohexahydro-1H-pyrrolizin-7a-yl)methoxy)pyrido[4,3-d]pyrimidin-4-yl)piperidine-4-carbonitrile], the IC50 was 3 nM in test [1]; 455 nM in [2]; more than 10000 nM in test [4]; 79 nM in test [7]; 4 nM in test [10]; 25 nM in [11]. The compound also showed an IC50 in [13] of 22 nM. The inhibition at 0.1 µM is -13% in [2] (ASPC1, 3 h, single point, 100 nM compound, 3 hrs, AsPC-1 cells); 46% in test [3] (NCI-H460, 3 h, single point, 100 nM compound, 3 hrs); 59% in test [6] (A549, 3 h, single point, 100 nM compound, 3 hrs); 30% in test [7] (NCI-H727, 3 h, single point, 100 nM compound, 3 hrs, H727 cells); 67% in test [8] (NCI-H358, 3 h, single point, 100 nM compound, 3 hrs); 5% in test [9] (HCT-116, 3 h, single point, 100 nM compound, 3 hrs).
As to `CCc1c(F)ccc2cc(O)cc(-c3ncc4c(N5CCC[C@@](C)(O)C5)nc(OC[C@]56CCCN5[C@H](CF)CC6)nc4c3F)c12` [Example 879, (R)-1-(7-(8-ethyl-7-fluoro-3-hydroxynaphthalen-1-yl)-8-fluoro-2-(((3S,7aR)-3-(fluoromethyl)tetrahydro-1H-pyrrolizin-7a(5H)-yl)methoxy)pyrido[4,3-d]pyrimidin-4-yl)-3-methylpiperidin-3-ol], the IC50 in test [1] was less than 2 nM; in [2], 12 nM; in [3] it was 25 nM; in [4] it was 889 nM; in test [6] it was 30 nM; in [7], 35 nM. In addition, the half-inhibitory concentration (IC50) was 14 nM in [8]; 65 nM in test [9]; 3 nM in test [10]; 1 nM in [11]; 2 nM in test [13].
